# Experimental data published in patent publication US5547972A, “Therapeutic agents useful for treating inflammatory diseases” (The Boots Company PLC, priority 1991, dated 1996).
# Counter-ions that a name gives are not always drawn. Like-named read-outs stand apart in the source and are kept apart here.
# Experiments:
# [1] = system: Carrageenan-induced rat paw oedema; experiment: Test B: Carrageenan-induced rat paw oedema test; format: in vivo, rat (female); details: inhibition of paw oedema, 1 h before carrageenan, 3 h after injection; for inhibition in vivo at 100 mg/kg: Rattus norvegicus, po, 3 h; for Test B % inhibition at 100 mg/kg: oral
# Method: Carrageenan-induced rat paw oedema test
# Female rats, weight range 125-150 g were fasted overnight. One of the hind legs of each animal was marked with a line at the connection between the cuboid/navicular and calcaneus/talus bones. Groups of six rats were orally dosed at 10 ml/kg, in random order, with a given dose of the test compound given as a solution or suspension in 10% (w/v) aqueous acacia solution.
# One hour after dosing, 0.1 ml of 1% (w/v) sterile carrageenan λ in normal saline was injected deeply into the plantar surface of the marked hind foot of each rat. The volume of the foot (up to the marked line) was measured immediately after injection using duplicate water displacement readings. Three hours after injection the foot volume was measured again and the percentage increase in foot volume relative to the initial reading was calculated.
# The increase in foot volume (i.e. the degree of oedema) in drug treated animals when compared with that in the drug untreated control gave the degree of inhibition of paw oedema by the drug.
# Compounds were considered to be active in this test if they produced a 20% or greater inhibition of paw oedema in at least two out of three tests after oral dosing at 100 mg/kg. Statistical significance was assessed using the Student't test for single dose studies and Dunnett's test for multiple dose studies. More advantageous compounds were active in both Tests A and B,
# [2] = system: Zymosan Stimulated Macrophaqes; experiment: Test A: Inhibition of Arachidonic Acid Release from Zymosan Stimulated Macrophages; format: cell-based, mouse (female MF1); details: read-out: Test A IC50
# Method: Inhibition of Arachidonic Acid Release from Zymosan Stimulated Macrophaqes
# Female MF1 mice (weighing 20 to 25 g) were killed using a rising concentration of CO2. The mice were laid on their backs and the abdomens wiped with 70% alcohol. The skin was pulled back, exposing the peritoneal wall. Medium A (5 ml) (see below) was injected into the peritoneal cavity of each mouse followed by approximately 1 ml of air using a 20 ml syringe and a 21 G×40 mm needle in order to form a suspension of macrophage cells. The medium and cells were then removed using a 19 G×40 mm needle. The resulting suspension was returned to a sterile beaker kept on ice. The extracts from all the mice were pooled and this pooled cell suspension was counted using a Coulter counter and adjusted to a final cell count of 1-1.3×10^6 cells/ml prior to labelling with [^3 H]-arachidonic acid. Typically five mice provided sufficient cells for each multiwell plate.
# Sufficient [^3 H]-arachidonic acid in ethanol to give a final concentration of 1.6 μCi/ml (equivalent to 40 μCi/plate) was blown to dryness under nitrogen. The arachidonic acid was then resuspended in 1 or 2 ml of the cell suspension which was then mixed with the remainder of the cell suspension in a centrifuge bottle. The labelled cell suspension was then plated out into sterile plastic 96 flat-bottomed well plates (250 μl per well) and incubated overnight at 37° C. in a moist atmosphere of 5% CO2, 95% air.
# The following day, non-adherent cells were removed by washing 3 times with sterile phosphate buffered saline (PBS). The adherent peritoneal macrophages were then cultured for a further 24 hours in the presence or absence of drugs, in medium B (see below) at 37° in a 5% CO2 atmosphere in order to measure the effects of drugs on the spontaneous release of arachidonic acid in the absence of stimulus. After this incubation, supernatants were removed to give media 1 and stored in sealed multi-well plates at 4° C. prior to scintillation counting. Drugs which potentiated spontaneous release of arachidonic acid (125% of controls) were deemed to be toxic at the concentration at which this phenomenon occurred. The supernatants were replaced by fresh medium C containing fresh drug and a stimulus. Three drugs were tested at six concentrations (100, 50, 20, 10, 5 and 1 μM) in replicates of four on each plate. The other wells contained controls consisting of a positive control (e.g. dexamethasone), medium (B) only and medium C only.
# Incubation was then continued for a further 5 hours, whereupon the supernatants were collected to give media 2 and the adherent cells washed with PBS. The cells were then lysed with 100 μl of 0.1% TRITON® X100 in a 0.1% solution of bovine serum albumin in 0.9% saline and mechanically disrupted to give cell lysates. These supernatants (media 2) and cell lysates (Cells) were also stored in sealed multi-well plates at 4° C. prior to scintillation counting. 200 μl aliquots of media, or 100 μl aliquots of cells were counted using 2 ml of OPTIPHASE "HIGH SAFE" (Trademark of LKB) as scintillant.
# The percentage of arachidonic acid released was calculated using the mean values for each group of 4 wells in the following equation. [formula] cpm=courts per minute
# The value for the arachidonic acid release in the absence of stimulus (spontaneous, cpm of media 2) from cells which had been exposed to neither stimulus nor drug was subtracted from all equivalent values (cpm media 2, stimulated with or without drug) to give the net stimulated release. The percentage inhibition of arachidonic acid release caused by a drug may then be calculated using the following equation. [formula]
# Compounds of formula I were tested at six concentrations (100, 50, 20, 10, 5 and 1 μM) and IC50 values calculated. Compounds with IC50 values<100 μM are considered to be active. Advantageous compounds have an IC50 value <50 μM.
# Medium A (for peritoneal lavage) […]
# [3] = Mus musculus, Macrophage, 5 h, inhibition of arachidonic acid release, six concentrations (100, 50, 20, 10, 5 and 1 μM), 5 h with zymosan
# [4] = inhibition of arachidonic acid release, six concentrations (100, 50, 20, 10, 5 and 1 μM), 5 h with zymosan
# [5] = inhibition of arachidonic acid release, six concentrations (100, 50, 20, 10, 5 and 1 μM), 5 h with zymosan, dihydrochloride
Compound,"IC50 [2, 3]",inhibition in vivo at 100 mg/kg [1],also measured
"CC(NCCCn1ccnc1)c1ccc(Cl)cc1 (single isomer, unassigned; (+)) [Example 56, (+) N-[1-(4-Chlorophenyl)ethyl]-3-(imidazol-1-yl)propylamine dihydrochloride]",16 µM,57%,–
"CC(NCCCn1ccnc1)c1ccc(Cl)cc1 (single isomer, unassigned; (+)) [Example 93, (+)N-[1-(4-chlorophenyl)ethyl]-3-(imidazol-1-yl)-propylamine (+) ditartrate]",–,–,"Test B % inhibition at 100 mg/kg [1]: 57%; IC50 [2, 4]: 16 µM"
"CC(NCCCn1ccnc1)c1ccc(Cl)cc1.Cl.Cl (single isomer, unassigned; (-)) [Example 57, (-)N-[1-(4-Chlorophenyl)ethyl]-3-(imidazol-1-yl)propylamine dihydrochloride]",–,–,"Test B % inhibition at 100 mg/kg ([1]; dihydrochloride): 48%; IC50 [2, 5]: 20 µM"
"CC(NCCCn1ccnc1)c1ccc(Cl)cc1 (single isomer, unassigned; (-)) [Example 92, (-) N-[1-(4-chlorophenyl)ethyl]-3-(imidazol-1-yl)propylamine (-)-ditartrate]",–,–,"Test B % inhibition at 100 mg/kg [1]: 48%; IC50 [2, 4]: 20 µM"
"CC(C)(NCCCn1ccnc1)c1ccc(Cl)cc1.Cl.Cl [68 (2), N-[1-(4-chlorophenyl)-1-methylethyl]-3-(imidazol-1-yl)propylamine dihydrochloride]",–,–,"Test B % inhibition at 100 mg/kg [1]: 70%; IC50 [2, 5]: 43 µM"
"CC(NCCCn1ccnc1)c1ccc(Cl)cc1 (centres unmarked) [Example 1, N-[1-(4-chlorophenyl)ethyl]-3-(imidazol-1-yl)propylamine dihydrochloride]",55 µM,59%,–
"CC(NCCCn1ccnc1)c1ccccc1Cl (centres unmarked) [Example 8, N-[1-(2-Chlorophenyl)ethyl]-3-(imidazol-1-yl)propylamine]",92 µM,55%,–
"CC(NCCCn1ccnc1)c1ccc(Cl)c(F)c1 (centres unmarked) [Example 10, N-[1-(4-Chloro-3-fluorophenyl)ethyl]-3-(imidazol-1-yl)propylamine dihydrochloride]",40 µM,49%,–
"CC(NCCCn1ccnc1)c1ccc(C(F)(F)F)cc1 (centres unmarked) [Example 11, 3-(Imidazol-1-yl)-N-[1-(4-trifluoromethylphenyl)ethyl]propylamine]",45 µM,34%,–
"CC(NCCCn1ccnc1)c1ccc(Cl)c(Cl)c1Cl (centres unmarked) [Example 13, N-[1-(2,3,4-Trichlorophenyl)ethyl]-3-(imidazol-1-yl)propylamine dihydrochloride]",13 µM,70%,–
"CC(NCCCn1ccnc1)c1ccc(Br)cc1 (centres unmarked) [Example 14, N-[1-(4-Bromophenyl)ethyl]-3-(imidazol-1-yl)propylamine]",60 µM,60%,–
"CC(NCCCn1ccnc1)c1ccc(Oc2ccccc2)cc1 (centres unmarked) [Example 16, 3-(Imidazol-1-yl)-N-[1-(4-phenoxyphenyl)ethyl]propylamine]",–,9%,"IC50 ([2]; Mus musculus, Macrophage, 5 h): 8 µM"
"CC(NCCCn1ccnc1)c1ccc(C(C)(C)C)cc1 (centres unmarked) [Example 19, N-[1-(4-Tert-butylphenyl)ethyl]-3-(imidazol-1-yl)propylamine]",12 µM,27%,–
"CCCCOc1ccc(C(C)NCCCn2ccnc2)cc1 (centres unmarked) [Example 22, N-[1-(4-Butoxyphenyl)ethyl]-3-(imidazol-1-yl)propylamine dioxalate]",21 µM,17%,–
"Clc1ccc(C(NCCCn2ccnc2)c2ccccc2)cc1 (stereo not drawn) [Example 28, N-[α-(4-chlorophenyl)benzyl]-3-(imidazol-1-yl)propylamine]",11 µM,48%,–
"CC(NCCCn1ccnc1)c1ccc(Cl)cc1O (centres unmarked) [Example 29, 5-chloro-2-{1-[3-(imidazol-1-yl)propylamino]ethyl}phenol dihydrochloride]",34 µM,36%,–
"Cc1nccn1CCCNC(C)c1ccc(Cl)cc1 (centres unmarked) [Example 52, N-[1-(4-chlorophenyl)ethyl]-3-(2-methylimidazol-1-yl)propylamine]",–,–,Test B % inhibition at 100 mg/kg [1]: 27%

# The next lines start with results.
"IC50 [2, 3]",Compound,inhibition in vivo at 100 mg/kg [1],also measured
39 µM,"CC(NCCCn1ccnc1)c1ccc(Cl)cc1Cl (centres unmarked) [Example 2, N-[1-(2,4-Dichlorophenyl)ethyl]-3-(imidazol-1-yl)propylamine]",37%,–
12 µM,"CC(NCCCn1ccnc1)c1ccc(OCc2ccccc2)cc1 (centres unmarked) [Example 5, N-[1-(4-Benzyloxyphenyl)ethyl]-3-(imidazol-1-yl)propylamine]",5%,–
94 µM,"CC(NCCCn1ccnc1)c1cccc(Cl)c1 (centres unmarked) [Example 7, N-[1-(3-Chlorophenyl)ethyl]-3-(imidazol-1-yl)propylamine]",48%,–
22 µM,"CC(NCCCn1ccnc1)c1ccc(Cl)c(C(F)(F)F)c1 (centres unmarked) [Example 9, N-[1-(4-Chloro-3-trifluoromethylphenyl)ethyl]-3-(imidazol-1-yl)propylamine]",78%,–
11 µM,"Cc1ncn(CCCNC(C)c2ccc(Cl)cc2)c1C (centres unmarked) [Example 24, N-[1-(4-Chlorophenyl)ethyl]-3-(4,5-dimethylimidazol-1-yl)propylamine dihydrochloride]",34%,–
19 µM,"CC(NCCCn1ccnc1-c1ccccc1)c1ccc(Cl)cc1 (centres unmarked) [Example 25, N-[1-(4-Chlorophenyl)ethyl]-3-(2-phenylimidazol-1-yl)propylamine dihydrochloride hydrate]",34%,–
56 µM,"CC(NCCCCn1ccnc1)c1ccc(Cl)cc1 (centres unmarked) [Example 26, N-[1-(4-Chlorophenyl)ethyl]-4-(imidazol-1-yl)butylamine]",40%,–
8 µM,"Cc1nccn1CCCNC(C)c1ccc(Cl)cc1 (centres unmarked) [Example 27, N-[1-(4-Chlorophenyl)ethyl]-3-(2-methylimidazol-1-yl)propylamine dihydrochloride]",27%,–
24 µM,"CCC(NCCCn1ccnc1)c1ccc(Cl)cc1 (centres unmarked) [Example 30, N-[1-(4-chlorophenyl)propyl]-3-(imidazol-1-yl)propylamine oxalate]",39%,–
10 µM,"Cc1cn(CCCNC(C)c2ccc(Cl)cc2)c(C)n1 (centres unmarked) [Example 31, N-[1-(4-chlorophenyl)ethyl]-3-(2,4-dimethylimidazol-1-yl)propylamine dihydrochloride]",25%,–
